This note sets out measurements from publication PMC6934184, “Selective DNA-PKcs inhibition extends the therapeutic index of localized radiotherapy and chemotherapy” (The Journal of Clinical Investigation, 2019).

The test has as its target T1, ERBB4 (HER4) (Homo sapiens, UniProt Q15303).
T1 construct: purchased Thermo Fisher Scientific (Life Technologies) SelectScreen
The test is described as follows: SelectScreen Z'LYTE. It counts as biochemical. The essentials: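 NU5455 was profiled across the SelectScreen Broad panel of kinase activity and binding assays. Z'LYTE reactions such as CSF1R ran at apparent Km ATP, while the Adapta CAMK1 assay used ATP listed as 10. Values are given as percent.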

T1 sequence (Q15303 26-1308): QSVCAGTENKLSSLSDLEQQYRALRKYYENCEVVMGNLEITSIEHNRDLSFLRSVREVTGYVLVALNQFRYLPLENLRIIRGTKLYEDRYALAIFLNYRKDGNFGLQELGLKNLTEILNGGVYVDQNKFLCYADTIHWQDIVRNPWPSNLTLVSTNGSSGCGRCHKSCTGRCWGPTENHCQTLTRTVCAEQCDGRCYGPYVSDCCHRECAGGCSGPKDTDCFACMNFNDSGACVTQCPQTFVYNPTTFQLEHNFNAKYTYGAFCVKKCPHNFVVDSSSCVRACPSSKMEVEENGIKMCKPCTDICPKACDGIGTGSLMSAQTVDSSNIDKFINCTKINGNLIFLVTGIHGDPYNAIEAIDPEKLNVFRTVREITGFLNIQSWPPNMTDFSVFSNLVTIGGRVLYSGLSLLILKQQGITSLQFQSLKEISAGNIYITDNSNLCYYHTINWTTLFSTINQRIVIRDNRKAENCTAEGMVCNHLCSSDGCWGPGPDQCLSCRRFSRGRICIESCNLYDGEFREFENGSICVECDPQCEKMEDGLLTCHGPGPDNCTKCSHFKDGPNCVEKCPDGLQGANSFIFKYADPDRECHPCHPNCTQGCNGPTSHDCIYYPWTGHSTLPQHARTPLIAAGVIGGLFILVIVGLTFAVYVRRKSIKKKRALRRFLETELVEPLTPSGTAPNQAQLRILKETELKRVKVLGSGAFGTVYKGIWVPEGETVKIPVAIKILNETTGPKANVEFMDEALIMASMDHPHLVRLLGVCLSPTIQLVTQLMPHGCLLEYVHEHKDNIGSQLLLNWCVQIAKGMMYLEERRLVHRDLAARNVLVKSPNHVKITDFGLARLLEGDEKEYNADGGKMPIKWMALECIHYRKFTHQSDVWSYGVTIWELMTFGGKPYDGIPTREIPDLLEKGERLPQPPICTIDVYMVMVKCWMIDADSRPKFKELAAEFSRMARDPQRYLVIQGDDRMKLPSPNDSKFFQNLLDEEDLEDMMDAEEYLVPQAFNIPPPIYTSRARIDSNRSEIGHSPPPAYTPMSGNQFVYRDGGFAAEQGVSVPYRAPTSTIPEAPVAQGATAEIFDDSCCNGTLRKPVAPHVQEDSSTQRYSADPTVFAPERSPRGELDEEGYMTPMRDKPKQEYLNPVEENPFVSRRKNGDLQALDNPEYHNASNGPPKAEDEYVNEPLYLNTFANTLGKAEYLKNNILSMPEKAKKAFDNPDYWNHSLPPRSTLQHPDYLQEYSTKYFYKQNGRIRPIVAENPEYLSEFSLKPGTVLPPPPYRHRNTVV

Take `CN(C(=O)CN1CCOCC1)c1ccc2sc3c(-c4cccc5c(=O)cc(N6CC7CCC(C6)O7)oc45)cccc3c2c1` [NU5455]: the inhibition at 1 µM is -2.8%.

Broadly, the inhibition is the relative decrease from the control value, in per cent.
